The source of these data is PMC8199578, “Anti-Inflammatory, Antiallergic, and COVID-19 Main Protease (M^pro) Inhibitory Activities of Butenolides from a Marine-Derived Fungus Aspergillus terreus” (Molecules, 2021).

The nature of data set [1]: MTT cell viability assay in mast cells. It is filed as cell-based. The note with it: rat. Here is the method:
(§1) The mucosal mast-cell-derived rat basophilic leukemia cells (RBL-2H3) were purchased from Bioresource Collection and Research Center (Hsin-Chu, Taiwan). The cells were cultured in DMEM containing 10% FBS, 100 U/mL penicillin, and 100 μg/mL streptomycin in 10 cm cell culture dishes at 37 °C in a humidified chamber with 5% CO2 in air. The level of degranulation in RBL-2H3 cells was evaluated using β-hexosaminidase release assay induced by A23187 or antigen as reported before with some modifications. Briefly, the cells were seeded in a 96-well plate (2 × 10^4 cells/well, for the A23187-induced assay) or a 48-well plate (3 × 10^4 cells/well, for the antigen-induced assay) overnight. The cells for the antigen-induced assay were sensitized with anti-DNP IgE (0.5 μg/mL; Sigma) during seeding overnight. RBL-2H3 cells were then treated with the samples (0.5, 5, and 50 μM) for 30 min in Tyrode’s buffer with a maximal DMSO dose of 0.5%. For the A23187-induced assay, the cells were activated by addition of A23187 (final concentration 0.5 μM), while cells for the antigen-induced assay were activated by the addition of DNP-BSA (final concentration 100 ng/mL) for 30 min. Azelastine (10 μM) served as the positive control. The amount of β-hexosaminidase was detected using the method utilizing p-NAG as the substrate according to the procedure described before.
The viability of the RBL-2H3 cells in the presence of the samples (10 and 100 μM) was determined using the methylthiazole tetrazolium (MTT) assay according to a previous method.
On the technique in general: Formazan colour is commonly taken as a measure of viable cells.

In data set [2] the test system is RBL-2H3 cells. As to the kind of experiment: A23187-induced degranulation (β-hexosaminidase release) assay. It is filed as cell-based. The note with it: Rattus norvegicus; for IC50: RBL-2H3, read-out: Inhibition of A23187-Induced Degranulation IC50. The procedure:
as §1

The test system of data set [3] is RBL-2H3 cells. As to the kind of experiment: Antigen (anti-DNP IgE plus DNP-BSA)-induced degranulation (β-hexosaminidase release) assay. The format is cell-based. The note with it: Rattus norvegicus; for IC50: RBL-2H3, read-out: Inhibition of Antigen-Induced Degranulation IC50. The procedure: as §1
Data set [4] has as its system human neutrophils. As to the kind of experiment: Elastase release in fMLF/CB-induced human neutrophils. The format is cell-based. The note with it: Neutrophil, read-out: Elastase Release in Human Neutrophils IC50. Here is the method: (§2) The human neutrophils were obtained from venous blood of healthy adult volunteers (20–30 years old) following the reported procedure. Elastase release by the activated neutrophils was determined using elastase substrate (N-methoxysuccinyl-Ala-Ala-Pro-Val-p-nitroanilide) according to the previous methodology. The tested samples’ concentration was 1 to 10 μM and the total incubation time in fMLF/CB-induced cells was 15 min. Genistein was used as the positive control. Cytotoxicity test was performed based on the release of LDH stored in the cytoplasm out of the cells. Briefly, preheated (37 °C, 5 min, 1 mM CaCl2) human neutrophils (6 × 10^5 cells·mL^−1) were incubated with test compounds for 15 min. Total LDH release control was represented as completely lysed cells by 0.1% of Triton X-100 solution incubated with cells for 30 min. The cells were centrifuged at 4 °C for 200× g for 8 min, and LDH reagent was added to supernatant and reacted at room temperature for 30 min in the dark. The absorbance was then measured at 492 nm, and the LDH release was calculated and compared to the total LDH release set as 100%.

Data set [5] concerns human neutrophils. As to the kind of experiment: Lactate dehydrogenase (LDH) viability assay in human neutrophils. The format is cell-based. Particulars: cell viability assay based on lactate dehydrogenase release. The procedure: as §2
Experiment in data set [6]: as above
It is filed as cell-based. Particulars: human, human neutrophils; 10 μM; based on lactate dehydrogenase release; mean ± S.E.M. (n = 3); read-out: Cell viability, Human Neutrophils. The procedure:
as §2

On the set-up of data set [7]: method as in PMID 29763312. Particulars: via reducing the levels of histamine and mouse mast cell proteinases; cited from earlier work.
Data set [8] addresses T1, human neutrophil elastase (Homo sapiens, UniProt P08246).
T1 construct: followed by fMLF (0.1 μM) for 20 min to release the elastase from the cells; endogenous in cells; host or cells: human neutrophils; degranulation supernatant after CB/fMLF stimulation
T1 sequence (P08246 30-247 limits assumed): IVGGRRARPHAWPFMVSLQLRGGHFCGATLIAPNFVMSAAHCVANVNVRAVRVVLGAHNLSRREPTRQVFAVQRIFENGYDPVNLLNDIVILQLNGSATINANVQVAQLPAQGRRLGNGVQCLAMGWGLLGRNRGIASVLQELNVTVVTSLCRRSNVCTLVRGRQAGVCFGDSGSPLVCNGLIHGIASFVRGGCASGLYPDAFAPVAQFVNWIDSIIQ
As to the kind of experiment: Elastase enzymatic activity (cell-free). It is filed as biochemical. The note with it: mean ± S.E.M. (n = 3). The procedure: The compounds were further tested for direct inhibition of elastase enzymatic activity. The neutrophil suspension (6 × 10^5 cells mL^−1) was preheated for 5 min in the presence of CaCl2 (1 mM) at 37 °C. Priming agent CB (1.5 μg mL^−1) was added for 2 min, followed by fMLF (0.1 μM) for 20 min to release the elastase from the cells. After centrifugation at 1000 g for 5 min at 4 °C, the supernatant containing elastase was preheated at 37 °C for 5 min, and the test compounds were added. Then, 0.1 mM of substrate methoxysuccinyl-Ala-Ala-Pro-Val-p-nitroanilide was added for 10 min. The effect of the compounds on elastase enzymatic activity was quantified by measuring the absorbance at 405 nm.

Where [9] appears, read: 100 μM, MTT viability assay, compared with untreated control (DMSO), n = 3, read-out: Cell Viability, RBL-2H3.
The mark [10] stands for this setting: RBL-2H3, read-out: Inhibition of A23187-induced degranulation.
Setting [11] is: RBL-2H3, read-out: Inhibition of antigen-induced degranulation.

SMILES strings stand for the structures. Like-named read-outs stand apart in the source and are kept apart here. Bounds are passed on as bounds.

For the compound `CC(C)=CCc1cc(C=O)ccc1O` [4-hydroxy-3-(3-methylbut-2-enyl)benzaldehyde], the viability – broadly, the share of living cells, or the viability signal relative to a control – at 100 µM in data set [1] was above 90%. The IC50 – broadly, the concentration that inhibits the measured activity by half – is above 100 µM with RBL-2H3 cells [2], above 100 µM in the data set on RBL-2H3 cells [3] and above 10 µM in the data set with human neutrophils [4] (Homo sapiens).
Turning to `CN1CCCC(n2nc(Cc3ccc(Cl)cc3)c3ccccc3c2=O)CC1` (stereo not drawn) [Azelastine, reference compound], the inhibition (in general, the change of the read-out against control, counted positive when it falls) at 10 µM worked out at 34.5% in the data set on RBL-2H3 cells [2] (RBL-2H3, 10 μM, mean ± S.E.M. (n = 3), read-out: Inhibition of A23187-induced degranulation) and 35.5% with RBL-2H3 cells [3] (RBL-2H3, 10 μM, mean ± S.E.M. (n = 3), read-out: Inhibition of antigen-induced degranulation).
As for `COC(=O)[C@]1(Cc2ccc(O)c(CC=C(C)C)c2)OC(=O)C(O)=C1c1ccc(O)cc1` [Butyrolactone I (1), butyrolactone I], in the data set on human neutrophils [5], the “Toxicity to human neutrophils (in words)” value is given as “non-toxic”. In addition, in data set [6], the viability at 15 min, 10 µM turned out to be 94.1 ± 2.31%. Besides, in data set [1] (setting [9]), the viability at 100 µM is above 90%. Further, the IC50 in the data set with RBL-2H3 cells [2] turned out to be 39.7 µM; in the data set with RBL-2H3 cells [3], 41.6 µM; in the data set on human neutrophils [4] (Homo sapiens), 2.3 ± 0.27 µM; in data set [8] it was 16.7 ± 2.64 µM. Moreover, the inhibition at 10 µM came out at 26% in the data set with RBL-2H3 cells [2] (setting [10]) and 30% with RBL-2H3 cells [3] (setting [11]). The inhibition at 100 µM with RBL-2H3 cells [2] (setting [10]) amounted to 98.7%; with RBL-2H3 cells [3] (setting [11]), 87%. Further, in data set [7], the “Effect on ovalbumin-induced allergy symptoms” value is listed as “alleviating ovalbumin-induced allergy symptoms”.
Regarding `COC(=O)[C@]1(Cc2ccc(O)c(CC3OC3(C)C)c2)OC(=O)C(O)=C1c1ccc(O)cc1` (stereo partly drawn) [Butyrolactone III (2), butyrolactone III], the “Toxicity to human neutrophils (in words)” value in the data set on human neutrophils [5] is given as “non-toxic”. For the same compound, in data set [6], the viability at 15 min, 10 µM is 98.2 ± 1.77%. Also, the viability at 100 µM in data set [1] (setting [9]) was above 90%. Besides, the IC50 in the data set with RBL-2H3 cells [2] is above 100 µM; in the data set on RBL-2H3 cells [3], above 100 µM; with human neutrophils [4] (Homo sapiens), above 10 µM; in data set [8], above 30 µM.
For the compound `O=c1c(-c2ccc(O)cc2)coc2cc(O)cc(O)c12` [Genistein, reference compound], in the data set with human neutrophils [4] (fMLF/cytochalasin B (CB)-induced human neutrophils, mean ± S.E.M. (n = 3)), the IC50 was found to be 32.7 µM.
As to `C=C1C[C@]2(O)[C@@]3(C)CCC(=O)C(C)(C)C3=C(O)C(=O)[C@@]2(C)[C@@H]2C(=O)O[C@@](C)(C(=O)OC)C(=O)[C@@]12C` [Terretonin (3), terretonin], in data set [1] (setting [9]), the viability at 100 µM was above 90%. Further, the values for the IC50 in the data set with RBL-2H3 cells [2], in the data set on RBL-2H3 cells [3] and in the data set on human neutrophils [4] (Homo sapiens) were above 100 µM, above 100 µM and above 10 µM, respectively.
